Drawing on EP0468504B1, “A novel antibiotic, balhimycin, a process for its production and its use as pharmaceutical” (HOECHST AKTIENGESELLSCHAFT, priority 1990, dated 1992), this text covers MIC for one molecule.

Counter-ions that a name gives are not always drawn. Some results are limits rather than exact numbers.

Among the test systems are Staph. epidermidis 178; S. aureus (MethR); Ps. aeruginosa; S. faec. D 21777; S. aureus 209 P; P. vulgaris; S. faecium D-59; S. faec. D Endococcen; S. epi. 825; S. faecium D-65; S. aureus E 690 (MethR); S. aureus 3066 (MethR); E. coli 9632; Staph. haemolyticus 712.
Experiment in all cases: MIC, antibacterial activity
What all share (format): cell-based

For assay [1], the system named is Streptococcus faecalis ATCC 29212.
Assay [2] concerns S. epi. 823 (Teicoplanin R).
For assay [3], the system named is S. haemo. 809 (Teicoplanin R).

As for `CNC(CC(C)C)C(=O)NC1C(=O)NC(CC(N)=O)C(=O)NC2C(=O)NC3C(=O)NC(C(=O)NC(C(=O)O)c4cc(O)cc(O)c4-c4cc3ccc4O)C(OC3C[C@](C)(N)C(=O)C(C)O3)c3ccc(c(Cl)c3)Oc3cc2cc(c3OC2O[C@H](CO)C(O)[C@H](O)C2O)Oc2ccc(cc2Cl)C1O` (some centres unmarked) [Balhimycin trifluoroacetate, Balhimycin], the MIC against Staph. epidermidis 178 is 1.56 µg/mL; in the assay on S. aureus (MethR), 0.39 µg/mL; with Ps. aeruginosa, greater than 100 µg/mL; in the assay on S. faec. D 21777, 0.78 µg/mL; in assay [1], 1.56 µg/mL; against S. aureus 209 P, 0.39 µg/mL. The MIC in the assay on P. vulgaris is greater than 100 µg/mL; against S. faecium D-59 it was 1.56 µg/mL; with S. faec. D Endococcen, 0.78 µg/mL; in assay [2] it was 12.5 µg/mL; against S. epi. 825, 3.12 µg/mL; against S. faecium D-65, 0.78 µg/mL. For the same molecule, the MIC against S. aureus E 690 (MethR) was 0.39 µg/mL; in assay [3], 6.25 µg/mL; with S. aureus 3066 (MethR), 0.78 µg/mL; against E. coli 9632, greater than 100 µg/mL; in the assay on Staph. haemolyticus 712 it was 1.56 µg/mL.

For orientation: MIC means the lowest concentration found to suppress growth. A low value points to greater potency.
